Results taken from patent US8901118B2, “Compounds and methods for kinase modulation, and indications therefor” (Plexxikon Inc., priority 2010, dated 2014).

System: BCR-FMS BaF3 cells
Experiment: Splenomegaly mouse model, BCR-FMS BaF3 cells
Assay type: in vivo
Conditions: dosed once per day at 10 mg per kg
In short: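 Female nu/nu mice given 5×10^6 engineered BaF3 cells i.v. on day 1; compound in 1.0% Polysorbate 80/0.5% HPMC/2.5% DMSO dosed orally once (sometimes twice) daily, days 10-18. Spleens weighed 4 h after final dose; % spleen growth inhibition calculated versus vehicle control.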

## O=C(c1cnc(NC2CCC(F)(F)CC2)c(F)c1)c1c[nH]c2ncnc(NC3CC3)c12 [Compound P-4053, [4-(cyclopropylamino)-7H-pyrrolo[2,3-d]pyrimidin-5-yl]-[6-[(4,4-difluorocyclohexyl)amino]-5-fluoro-3-pyridyl]methanone]
  % spleen growth inhibition, Fms: 69%
